Measurements: article PMC7066893 (Aging (Albany NY), 2020)

Target: T1, P-glycoprotein (P-gp) (Homo sapiens, UniProt P08183)
T1 construct: gene ABCB1
Experiment: Pgp-Glo luminescent P-gp ATPase assay; inhibition of paclitaxel-stimulated ATPase at […]
Format: biochemical

T1 sequence (P08183 whole entry): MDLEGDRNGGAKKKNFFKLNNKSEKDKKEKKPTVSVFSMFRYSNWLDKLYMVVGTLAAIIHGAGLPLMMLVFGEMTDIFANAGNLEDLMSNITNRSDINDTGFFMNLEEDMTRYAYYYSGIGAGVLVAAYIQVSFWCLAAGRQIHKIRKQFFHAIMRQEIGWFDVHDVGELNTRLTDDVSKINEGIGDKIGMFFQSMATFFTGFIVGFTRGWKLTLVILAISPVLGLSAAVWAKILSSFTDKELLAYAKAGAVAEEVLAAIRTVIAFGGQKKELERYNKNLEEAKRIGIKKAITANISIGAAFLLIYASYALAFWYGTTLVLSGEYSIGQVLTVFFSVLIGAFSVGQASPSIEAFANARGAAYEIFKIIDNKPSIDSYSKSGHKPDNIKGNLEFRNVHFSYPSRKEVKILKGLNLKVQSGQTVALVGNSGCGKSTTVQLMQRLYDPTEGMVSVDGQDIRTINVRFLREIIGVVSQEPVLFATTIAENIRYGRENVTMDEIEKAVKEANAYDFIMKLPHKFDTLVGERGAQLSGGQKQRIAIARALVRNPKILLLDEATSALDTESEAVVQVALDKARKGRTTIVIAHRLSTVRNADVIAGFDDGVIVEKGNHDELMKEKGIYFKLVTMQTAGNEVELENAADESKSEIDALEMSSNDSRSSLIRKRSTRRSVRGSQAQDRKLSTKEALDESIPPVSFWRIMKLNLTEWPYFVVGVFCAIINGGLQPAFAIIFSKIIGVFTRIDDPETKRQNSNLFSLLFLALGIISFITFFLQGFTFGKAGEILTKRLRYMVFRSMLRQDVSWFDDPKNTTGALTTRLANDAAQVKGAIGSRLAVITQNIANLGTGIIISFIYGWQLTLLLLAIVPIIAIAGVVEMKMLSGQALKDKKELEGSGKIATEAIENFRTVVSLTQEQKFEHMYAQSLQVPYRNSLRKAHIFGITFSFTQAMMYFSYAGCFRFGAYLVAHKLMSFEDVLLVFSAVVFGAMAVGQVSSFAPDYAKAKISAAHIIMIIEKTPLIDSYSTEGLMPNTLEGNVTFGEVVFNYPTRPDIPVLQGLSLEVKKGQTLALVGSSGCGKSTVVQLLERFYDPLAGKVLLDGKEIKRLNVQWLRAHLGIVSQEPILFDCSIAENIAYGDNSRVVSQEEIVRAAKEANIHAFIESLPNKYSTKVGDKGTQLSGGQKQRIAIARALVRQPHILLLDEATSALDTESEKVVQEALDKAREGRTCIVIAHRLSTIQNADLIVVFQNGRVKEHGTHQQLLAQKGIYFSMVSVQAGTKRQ

SMILES: C/C1=C\[C@@H]2[C@H](CC[C@@]3(C)O[C@@H]3[C@H]3[C@@H](O)[C@@H](C)C[C@]3(OC(=O)/C=C/c3ccccc3)C1=O)C2(C)C [EM-E-11-4]
- Pgp-Glo luminescent P-gp ATPase assay; inhibition of paclitaxel-stimulated ATPas: These results suggest that EM-E-11-4 hinders P-gp ATPase activity
